What all share (test): growth of human tumour cells (NCI), 48 h
Assay [1] concerns Hs-578T.
The test system of assay [2] is DLD-1.
Assay [3] relates to DMS-273.
Assay [4] relates to HOP-18.
The subject of assay [5] is KM-20L2.
Assay [6] relates to M19-MEL.
The test system of assay [7] is SNB-78.
Assay [8] deals with XF498.

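Where inhibition never reached the appropriate level, the endpoint shown equals the highest concentration tested. Otherwise, values were interpolated linearly from a five-concentration, 48-hour dose response in 96-well plates. GI50 is the concentration that inhibits growth by half.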 Calls of active or inactive are those of the source. Rule as the data show it: active = GI50 up to about 1.1 µM and inactive = higher. Starred links: 1 amine or outer side, 2 acyl side, 3 side chain; linkers in the order of their positions; H or OH if unused. Positions of bridges follow the written chain, without caps; N, C: chain ends. Non-standard residues stand in square brackets, D forms with d. Residues, ends and D or L forms follow the SMILES beside them. Chains are numbered I, II in the order given. ξ: configuration not given here. X42 = N=C(N)NCCC[C@H](NC(=N)CCCCCCC(=N)N[C@@H](CCCNC(=N)N)C(=O)[*:2])C(=O)[*:1]; Oic(3aξ,7aξ) = O=C(O)[C@@H]1CC2CCCCC2N1; Igl = N[C@H](C(=O)O)C1Cc2ccccc2C1; Hyp = O=C(O)[C@@H]1C[C@@H](O)CN1

The source of these data is ChEMBL document CHEMBL1201862, “PubChem BioAssay data set” (2004).

For the molecule `CC12CC(=O)C3C(CCC4=CC(=O)CCC43C)C1CC=C2CC(=O)O` (configuration not stated), in assay [1], the GI50 is > 100 µM (inactive).
The same measure, in the same setting: in the case of `Cc1cc2c(SCc3ccccc3Cl)nc(N)nc2nc1C` it was 36.3 µM (inactive); in that of `Nc1nc(-c2cccs2)cs1`, 37.9 µM (inactive).
Consider `CCN(CC)CCNC(=O)C1COc2ccc(-c3cc(=O)c4ccccc4o3)cc2O1` (configuration not stated), for which the GI50 in assay [2] is 22.9 µM (inactive); in assay [3], 19.4 µM (inactive); in assay [4], 21 µM (inactive); in assay [5], 17.5 µM (inactive); in assay [6], 18.3 µM (inactive); in assay [7], 10.1 µM (inactive). Further, the GI50 in assay [8] was 22.6 µM (inactive).
Consider `O=C(CC(O)(C(F)(F)F)C(F)(F)F)C(CCCl)C(O)(C(F)(F)F)C(F)(F)F` (configuration not stated), for which the GI50 in assay [1] is 67.6 µM (inactive).
`CC1=C(O)C(=O)C2C(=O)C1C(C)C2c1ccc(C)cc1` (configuration not stated): the GI50 was > 100 µM (inactive) in assay [2]; > 100 µM (inactive) in assay [3]; 3.06 µM (inactive) in assay [5]; > 100 µM (inactive) in assay [6]; > 100 µM (inactive) in assay [7]; > 100 µM (inactive) in assay [8].
On to `Cc1c(OCc2cccc3ccccc23)ccc2c(=O)cc(SCCN3CCOCC3)oc12`, for which the GI50 in assay [1] was > 100 µM (inactive).
Still for that read-out and setting: under `Cn1c(=O)c2c(nc(Nc3ccc(Cl)cc3)n3c(=O)n(-c4ccccc4)c(=O)n23)n(C)c1=O` stands > 100 µM (inactive).
As for `Cc1nc(-n2nc(-c3ccccc3)cc2-c2ccccc2)sc1C(/C=C/c1ccc([N+](=O)[O-])cc1)=N/NC(=O)c1ccncc1`, the GI50 in assay [2] was 11.6 µM (inactive); in assay [5], 19.4 µM (inactive); in assay [6], 25.4 µM (inactive); in assay [7], 17.3 µM (inactive).
Turning to `O=C1N/C(=N/N=C/c2ccccc2)N/C1=C\c1c[nH]c2ccccc12`, the GI50 in assay [1] is > 100 µM (inactive).
Regarding `Cc1ccc2c(c1)C=CC(C#N)N2C(=O)Oc1ccccc1` (configuration not stated), the GI50 in assay [1] was 41.6 µM (inactive).
Still for that read-out and setting: under `COc1cc2c(cc1O)C(=O)O[C@@H]1CC=C3CCN(C)[C@H]3[C@H]21` stands > 25 µM (inactive).
For the molecule `CCc1cccc(C(C)C)c1NC(=O)CC1Sc2ccccc2NC1=O` (configuration not stated), the GI50 in assay [2] was 47.4 µM (inactive); in assay [3], 34 µM (inactive); in assay [4], > 100 µM (inactive); in assay [6] it was 40.6 µM (inactive); in assay [7] it was > 100 µM (inactive); in assay [8] it was 53.6 µM (inactive).
On to `CC(=O)NC1C(Sc2ncn(C3OC(CO)C(O)C(O)C3NC(C)=O)n2)OC(CO)C(O)C1O` (configuration not stated), for which, in assay [1], the GI50 was > 100 µM (inactive).
Still for that read-out and setting: under `[O-][S+](Nc1ccccc1)c1ccc(Cl)cc1` (configuration not stated) stands 38.1 µM (inactive).
With `C=C=C(C(=O)OC)[S+]([O-])c1ccccc1[N+](=O)[O-]` (configuration not stated), the GI50 in assay [3], in assay [4], in assay [5], in assay [6], in assay [7] and in assay [8] was > 100 µM (inactive) each time.
`C=CCNC(=O)N(CCCC(NC(C)=O)C(=O)NCc1ccccc1)Cc1ccccc1` (configuration not stated): the GI50 in assay [3], in assay [4], in assay [5], in assay [6] and in assay [8] was > 100 µM (inactive) throughout.
With `CC(C)C1N2CCCCC2[C@@H]2c3[nH]c4ccccc4c3CCN12` (some centres not stated), the GI50 in assay [2], in assay [3], in assay [4], in assay [5], in assay [6] and in assay [7] was > 100 µM (inactive) throughout. For the same molecule, the GI50 in assay [8] was > 100 µM (inactive).
On to `COC(=O)/C=C(C)/C=C\COC1CCCCO1` (configuration not stated), for which the GI50 in assay [1] was > 100 µM (inactive).
On the same count and under the same terms, under `CNCCCNC(=S)Cn1cc(C)c(=O)[nH]c1=O` stands > 35.1 µM (inactive).
Regarding `COc1ccc(OC(C)=O)c2c1CCC=CC2=O`, the GI50 in assay [2] is > 10 µM (inactive); in assay [3], 16.6 µM (inactive); in assay [7] it was 38.5 µM (inactive); in assay [8], 17.3 µM (inactive).
For `NNC(=O)c1cc([N+](=O)[O-])ccc1NC(=O)C12CC3CC(CC(C3)C1)C2`, the GI50 in assay [1] is 5.66 µM (inactive).
The same measure, in the same setting: under `Cc1cc(C)c(C2CC(O)C(CO)O2)cc1C` (configuration not stated) stands > 100 µM (inactive); under `COc1cc(/C=N\O)cc(/C=N/O)c1O`, 17.6 µM (inactive); under `CO[C@@]12C[C@@H](CNC(=O)c3cc(Br)c[nH]3)O[C@@H]1NC(=O)N2`, > 100 µM (inactive).
Still for that read-out and setting: in the case of `Nc1c(-c2ccccc2)c2ccc([N+](=O)[O-])cc2c(=O)n1-c1cccc(C(=O)O)c1` it was 61.2 µM (inactive).
Same read-out and setting: under `CC1(C)[C@@H]2CC[C@@]1(C)CN(CCC[N+](C)(C)C)C2` stands > 100 µM (inactive); under `S=C(Nc1ccccc1)c1ccc(CN2CCCCC2)s1`, 25.3 µM (inactive).
On to `N#Cc1c(=O)c2cc([N+](=O)[O-])ccc2n2c1[nH]c1ccccc12`, for which the GI50 in assay [1] is 3.44 µM (inactive).
On to `CCCCCCCCC[C@@H]1C[C@@H]2CCC3C(C(=O)OC)=C(C)N=C(N1)N32` (some centres not stated), for which the GI50 in assay [1] was 4.66 µM (inactive).
As for `CCCSc1ccc2[nH]c(N3C(=O)/C(=C/c4ccccc4)N=C3c3ccccc3)cc2c1`, the GI50 in assay [1] was 20.3 µM (inactive).
The same measure, in the same setting: in the case of `CCC(=O)C(CCN1CCC(N2C(=O)C(CCC#N)c3ccccc32)CC1)(c1ccccc1)c1ccccc1` (configuration not stated) it was 9.57 µM (inactive).
As for `CCOc1ccccc1NC(=O)/C=C1\NC(=O)CS1`, the GI50 in assay [2] is > 100 µM (inactive); in assay [3], > 100 µM (inactive); in assay [4] it was 98.2 µM (inactive); in assay [5], > 100 µM (inactive); in assay [6], > 100 µM (inactive); in assay [7], > 100 µM (inactive). Further, the GI50 in assay [8] is > 100 µM (inactive).
Consider `O=C(O)C1C(=O)Oc2c(cccc2[N+](=O)[O-])C1O` (configuration not stated), for which the GI50 in assay [1] is > 100 µM (inactive).
Same read-out and setting: in the case of `Cc1ccccc1NC(=O)/C(C#N)=N\Nc1[nH]cnc1C(N)=O` it was 24.3 µM (inactive).
In the case of `O=C(CSc1nc(=O)c(-c2ccccc2NC(=O)C(F)(F)F)n[nH]1)NC(=O)Nc1ccccc1`, the GI50 is 18.9 µM (inactive) in assay [2]; 90.8 µM (inactive) in assay [3]; > 100 µM (inactive) in assay [6]; > 100 µM (inactive) in assay [7]; > 100 µM (inactive) in assay [8].
Consider `N#Cc1c(-c2ccc([N+](=O)[O-])cc2)cc(-c2ccc(Nc3ccnc4cc(C(F)(F)F)ccc34)cc2)nc1N`, for which the GI50 in assay [1] was 24.5 µM (inactive).
The same measure, in the same setting: under `N#CC1CNC(N)NC1N` (configuration not stated) stands > 100 µM (inactive); under `C[P+](c1ccccc1)(c1ccc(Cl)cc1)c1ccc(Cl)cc1`, 20.7 µM (inactive); under `S=C(NN=C1NCCCCN1)Nc1ccc(Cl)cc1`, 60 µM (inactive).
With `O=c1[nH]c(Br)nc2c(N3CCCCC3)c[nH]c12`, the GI50 in assay [2], in assay [3], in assay [4], in assay [5], in assay [6] and in assay [7] was > 100 µM (inactive) each time. Further, the GI50 in assay [8] is > 100 µM (inactive).
Take `O=C(C/C(=N/O)C(F)(F)F)c1cccs1`: the GI50 in assay [1] is > 100 µM (inactive).
On the same count and under the same terms, under `CCc1nc(N)nc(N)c1-c1ccc([N+](=O)[O-])c(Cl)c1` stands 32.4 µM (inactive); under `COc1ccc(/N=C2/C(=N/c3ccc(OC)cc3)N(c3ccccc3)C(=S)N2N=C=C2Sc3ccccc3N2C)cc1`, > 100 µM (inactive).
As for `O=S(=O)(O)c1cc(/N=[N+](\[O-])c2ccc(/N=N/c3ccccc3)cc2S(=O)(=O)O)ccc1/C=C/c1ccc(/N=[N+](\[O-])c2ccc(/N=N/c3ccccc3)cc2S(=O)(=O)O)cc1S(=O)(=O)O`, the GI50 in assay [2] is > 100 µM (inactive); in assay [3], > 95.3 µM (inactive); in assay [4], > 100 µM (inactive); in assay [6] it was > 100 µM (inactive); in assay [7], > 100 µM (inactive); in assay [8] it was > 100 µM (inactive).
Regarding `O=[N+]([O-])/C=C/c1ccc2ccccc2c1`, in assay [1], the GI50 is 4.44 µM (inactive).
For `O=C(OC1C=C=CS(=O)(=O)CC#C/C=C\1)c1cnc2ccccc2n1` (configuration not stated), the GI50 in assay [1] is > 100 µM (inactive).
On the same count and under the same terms, in the case of `CC(=O)OC[C@H]1O[C@@H](O[C@H]2[C@H](OC(C)=O)C=CO[C@@H]2COC(C)=O)C(OC(C)=O)[C@H]2OC(C)(C)O[C@H]21` (some centres not stated) it was 32.1 µM (inactive).
As to `Cc1ccccc1N(CC(=O)O)S(=O)(=O)c1ccccc1`, the GI50 in assay [2], in assay [3], in assay [4], in assay [5], in assay [6] and in assay [8] was > 100 µM (inactive) each time.
For the molecule `COc1cc(-c2cc(=O)c3c(O)c(OC)c(OC)c(OC)c3o2)ccc1O`, the GI50 in assay [2] was 23.9 µM (inactive); in assay [3] it was 5.08 µM (inactive); in assay [4], 32.4 µM (inactive); in assay [5], 40.2 µM (inactive); in assay [6], 22.8 µM (inactive); in assay [7], 27.7 µM (inactive).
Regarding `N=C(N)NCCC[C@H](NC(=O)[C@@H]1CC2CCCCC2N1C(=O)[C@@H](NC(=O)[C@H](CO)NC(=O)[C@@H](NC(=O)CNC(=O)[C@@H]1CCCN1C(=O)[C@H](CCCNC(=N)N)NC(=O)[C@H](CCCNC(=N)N)NC(=N)CCCCCCC(=N)N[C@@H](CCCNC(=N)N)C(=O)N[C@@H](CCCNC(=N)N)C(=O)N1CCC[C@H]1C(=O)N1C[C@H](O)C[C@H]1C(=O)NCC(=O)N[C@H](C(=O)N[C@@H](CO)C(=O)N[C@H](C(=O)N1C2CCCCC2C[C@H]1C(=O)N[C@@H](CCCNC(=N)N)C(=O)O)C1Cc2ccccc2C1)C1Cc2ccccc2C1)C1Cc2ccccc2C1)C1Cc2ccccc2C1)C(=O)O` (some centres not stated) (I: RP[Hyp]G[Igl]S[Igl][Oic(3aξ,7aξ)]R-OH / II: RPG[Igl]S[Igl][Oic(3aξ,7aξ)]R-OH; linker I:N-II:N via X42), the GI50 in assay [1] was 2.91 µM (inactive).
On the same count and under the same terms, under `c1ccc2c(Cc3c[nH]c4ccccc34)c[nH]c2c1` [ARUNDINE] stands 41.3 µM (inactive); under `CCOS(C)(=O)=O` [METHANESULFONIC ACID ETHYL ESTER], > 100 µM (inactive); under `O=C(O)CCc1nc2ccccc2[nH]1` [PROCODAZOLE], > 100 µM (inactive).
